These results are taken from US12161719B2, “Method of enhancing the antimicrobial action of systemically administered antibiotics” (Koite Health Oy, priority 2019, dated 2024).

Format in all cases: cell-based
Assay [1] has as its system Streptococcus mutans biofilms. Put plainly: 1 day biofilm test with Azithromycine, Indocyanine Green and light. The note with it: 15 μg with Indocyanine Green. On the procedure:
A further series of tests was carried out for Streptococcus mutans biofilms using Azithromycine (15 μg) and Indocyanine Green using light at 100 J/cm^2. For 1 day biofilms, the CFU was on an average <1 after treatment with dual light of 405 nm and 810 nm, respectively (at ratios of 3:1 to 1:3), whereas for either 405 nm or 810 nm wavelength light alone, the CFU was on an average below 100 after 1 day. For Azithromycine and Indocyanine Green without light, the CFU was about 1E06 to 1E07 after 1 day.

Assay [2] relates to Streptococcus mutans 4 day biofilm. Description: 4-day biofilm effectivity test, colony formation (CFU). From the text: FIG. 3 is a bar chart showing a comparison of the doxycycline effect with light excitations of 405 nm, dual-light (810 nm & 405 nm) and 370 nm to Streptococcus mutans colony formation in 4 day biofilm model; FIG. 4 is a bar chart showing the doxycycline effect against Streptococcus mutans 4 day biofilm for light excitation using a combination of light of 405 nm and 810 nm (“dual-light”) together with an ICG sensitizer, compared with light of 810 nm together with an ICG sensitizer (“doxy+aPDT”) and with 405 nm light without ICG sensitizer (“405”). A control of doxycycline is given as a reference; and […] is a bar chart showing a comparison of doxycycline effect with light excitations of […] on Streptococcus mutans colony formation in a 4-day biofilm effectivity test. FIG. 4 gives the CFU:s for Streptococcus mutans colonies on petri dishes after 4-day treatments, repeated 6 times with identical treatment and growth parameters, for four series of tests. The first (non-existent) bar represents the CFU:s for S. mutans colonies doxycycline which had been treated with doxycycline (30 μg) and dual light of 405 nm and 810 nm together with Indocyanine Green. The energy intensity of the light was 100 J/cm^2. […]

Assay [3] concerns planktonic Streptococcus mutans. Put plainly: Planktonic bacteria test, light activation of doxycycline. From the text:
FIG. 2 is a bar chart showing bacteria growth of Streptococcus mutans for four different treatments, illustrating the effect of light activation of doxycycline against planktonic Streptococcus mutans; FIG. 2 is a bar chart showing light activation of doxycycline at 405 nm in a planktonic bacteria test. […] 100 J of antibacterial blue light had minor reduction in CFU compared to non-exposed control.

The nature of assay [4]: Antibiotic susceptibility test (doxycycline disc on petri dishes, with or without light). From the text:
Antibiotic Susceptibility Test Each test was repeated 3 times with identical treatment and growth parameters. The calculated CFU:s for 100 J/cm^2 treated doxycycline disc results are shown in table 1 and representing image of difference between treated and non-treated doxy petri dish are shown in FIG. 1. […] Starting from the left is the doxycycline inhibition effect in dark, in the middle the resulting petri dish with 405 nm and 810 nm exposure and on the right side the petri dish with 405 nm excitation is shown.

`CC[C@H]1OC(=O)[C@H](C)[C@@H](O[C@H]2C[C@@](C)(OC)[C@@H](O)[C@H](C)O2)[C@H](C)[C@@H](O[C@@H]2O[C@H](C)C[C@H](N(C)C)[C@H]2O)[C@](C)(O)C[C@@H](C)CN(C)[C@H](C)[C@@H](O)[C@]1(C)O` [Azithromycine]: the “CFU on an average” value in assay [1] (405 nm light alone, 100 J/cm^2, 1 day) is listed as “below 100”; in assay [1] (810 nm light alone, 100 J/cm^2, 1 day), “below 100”; in assay [1] (dual light 405 nm and 810 nm (ratios 3:1 to 1:3), 100 J/cm^2, 1 day biofilms) it was less than 1.

On to `C[C@H]1c2cccc(O)c2C(=O)C2=C(O)[C@]3(O)C(=O)C(C(N)=O)=C(O)[C@@H](N(C)C)[C@@H]3[C@@H](O)[C@@H]21` [doxycycline], for which the “improvement of antibacterial light effect with the addition of doxycycline” value in assay [2] (370 nm light) and in assay [2] (405 nm light) was “over 1.5 log” each time. The bacteria growth in assay [3] (doxycycline without light) is ≥ 10^7 CFU. Further, the “bactericidal effect, bacteria killing” value in assay [3] (light activated at 405 nm) was “over 3 log”. Besides, the Regression diameter was 29,66666667 in assay [4] (44 J/cm^2 405 nm + 60 J/cm^2 810 nm); 30,33333 in assay [4] (83 J/cm^2 405 nm); 26,33333 in assay [4] (no light, disc test, repeated 3 times).
